Consider 1 compound from patent US6048523A, “Polyester cyclic compounds, their complexes and bonded bodies” (priority 1996, dated 2000).

For experiment [1], the system named is macrophages. The experiment can be described thus: migration ability of macrophages (glass capillary method) after oral administration. Type of experiment: in vivo, SD rat. To be noted: oral 4 mg/kg/day, 4 weeks; migration area after 24 hours; ratio to control group. The procedure:
After the administration, liquid paraffin was administered into peritoneal cavity of each rat. Three days later, peritoneal exudate cells were taken. Migration ability of macrophages produced from the peritoneal exudate cells was tested by glass capillary method. After 24 hours, a migration area of the macrophage was measured and a ratio of the measured migration area to that of control group was calculated.

Experiment [2] deals with lactic acid bacteria. The experiment can be described thus: multiplication of lactic acid bacteria in MRS medium. It counts as cell-based. To be noted: 0.25 mg/10 ml MRS medium, 48 hours; read-out: Multiplication rates to control. The procedure: Pre-cultivated lactic acid bacteria were seeded into each MRS medium in a predetermined amount. After 48 hours, it was diluted to a predetermined magnification and inoculated on an MRS agar medium to measure the number of the bacteria.

In experiment [3] the test system is lactic acid bacteria in the bowel. Description: number of lactic acid bacteria in the bowel of rats after oral administration. Type of experiment: in vivo, rat. To be noted: oral 4 mg/kg/day, 4 weeks; upper limit of the measurement 20. From the text:
After the administration, content of the bowel of each rat was taken, diluted to a predetermined magnification and inoculated on an MRS agar medium to measure the number of lactic acid bacteria in the bowel.

The test system of experiment [4] is Yoshida sarcomas. Description: Yoshida sarcoma transplanted into rat, oral administration. As to conditions: 8 mg/kg/day, 2 weeks. It counts as in vivo, Donryu-rat. The procedure:
Yoshida sarcomas were transplanted into a Donryu-rat of an age of 5 weeks. […] After the administration, sizes of the sarcomas were measured.

For experiment [5], the system named is Yoshida sarcoma cells. The experiment can be described thus: suppression of Yoshida sarcoma cells in culture. Type of experiment: cell-based. To be noted: Rattus norvegicus, 72 h, 3 days, read-out: suppression rate to control. The procedure: A concentration of each compound or complex in the culture solution was adjusted to 1 mg/ml, 0.5 mg/ml, 0.25 mg/ml or 0.125 mg/ml. After the sarcoma cells were cultivated for 3 days, the number of the cells was measured.

For `CC1OC(=O)C(C)OC1=O` (stereo not drawn) [formula (4), lactide], the “Ratio of the migration area” value in experiment [1] turned out to be 1.13. For the same compound, the activity at 25 µg/mL in experiment [2] was 116%. In addition, in experiment [3], the “Ratio to control (number of lactic acid bacteria in the bowel)” value was 3.8. Moreover, the Size of sarcoma in experiment [4] (average values) is recorded as 3216.6 mm^3. In experiment [4] (versus control), the Suppression rate was 57.9%. The inhibition at 125 µg/mL in experiment [5] (0.125 mg/ml) was -18.2%. The inhibition at 250 µg/mL in experiment [5] (0.25 mg/ml) was 0%. The inhibition at 500 µg/mL in experiment [5] (0.5 mg/ml) came out at 0%. The inhibition at 1000 µg/mL in experiment [5] (1 mg/ml) stood at 40.9%.
